Test results: US20260297042A1, “BIARYLAMIDE DERIVATIVES AND THEIR USE AS PKMYT1 INHIBITORS” (CANCER RESEARCH TECHNOLOGY LIMITED, priority 2023, published 2026)

How the values were obtained:
[1] = biological target: T1, Human PKMYT1 (Homo sapiens, UniProt Q99640); assay: PKMYT1 biochemical ADP-Glo enzymatic assay; settings: ADP-Glo
T1 construct: Human PKMYT1 75-362 was cloned as a TEV cleavable 6xHis fusion; 6xHis (TEV cleavable) (cleaved yes); made in house; host or cells: bacterial cells
T1 sequence (Q99640 75-362): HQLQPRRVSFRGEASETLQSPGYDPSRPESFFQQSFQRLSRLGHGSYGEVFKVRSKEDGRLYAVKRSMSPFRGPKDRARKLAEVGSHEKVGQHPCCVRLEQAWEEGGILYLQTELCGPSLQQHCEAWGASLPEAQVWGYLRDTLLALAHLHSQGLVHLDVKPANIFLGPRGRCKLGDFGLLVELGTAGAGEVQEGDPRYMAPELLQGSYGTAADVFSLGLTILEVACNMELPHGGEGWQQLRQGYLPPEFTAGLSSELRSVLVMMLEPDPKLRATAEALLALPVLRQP
Procedure, shortened: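 Purified untagged human PKMYT1 75-362 at 15 nM final was tested in HEPES pH 7.5 with MgCl2, EGTA, Brij-35 and 1% DMSO. Intrinsic ATPase activity was measured with 500 uM ATP over 60 min at 26° C. ADP-Glo luminescence was read and IC50 fitted from 10-point, 3-fold dilution curves.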

[2] = biological target: T2, WEE1 (Homo sapiens, UniProt P30291); assay: Selectivity versus WEE1 assay (ADP-Glo enzymatic assay); type: biochemical; settings: for IC50: ADP-Glo; for PKMYT1 vs. WEE1 selectivity: fold difference in selectivity for PKMYT1 over WEE1
T2 construct: purchased Thermo Fisher PR7373A
Procedure, shortened: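 WEE1 at 15 nM final in 50 mM HEPES pH 7.5, 10 mM MgCl2, 1 mM EGTA, 0.01% Brij-35, 1% DMSO; reaction started with 30 µM ATP, 60 min at 26 °C. ADP-Glo luminescence; IC50 from dose-response curves, replicates within 3-fold and r2 >0.9.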

[3] = PKMYT1 kinase domain 15 nM, banded values
[4] = 15 nM PKMYT1 kinase domain, 500 µM ATP, 60 minutes at 26° C., banded
[5] = 15 nM WEE1, 60 minutes at 26° C., banded
[6] = banded, ">N" = at least in this band but could be higher

T2 sequence (P30291 whole entry): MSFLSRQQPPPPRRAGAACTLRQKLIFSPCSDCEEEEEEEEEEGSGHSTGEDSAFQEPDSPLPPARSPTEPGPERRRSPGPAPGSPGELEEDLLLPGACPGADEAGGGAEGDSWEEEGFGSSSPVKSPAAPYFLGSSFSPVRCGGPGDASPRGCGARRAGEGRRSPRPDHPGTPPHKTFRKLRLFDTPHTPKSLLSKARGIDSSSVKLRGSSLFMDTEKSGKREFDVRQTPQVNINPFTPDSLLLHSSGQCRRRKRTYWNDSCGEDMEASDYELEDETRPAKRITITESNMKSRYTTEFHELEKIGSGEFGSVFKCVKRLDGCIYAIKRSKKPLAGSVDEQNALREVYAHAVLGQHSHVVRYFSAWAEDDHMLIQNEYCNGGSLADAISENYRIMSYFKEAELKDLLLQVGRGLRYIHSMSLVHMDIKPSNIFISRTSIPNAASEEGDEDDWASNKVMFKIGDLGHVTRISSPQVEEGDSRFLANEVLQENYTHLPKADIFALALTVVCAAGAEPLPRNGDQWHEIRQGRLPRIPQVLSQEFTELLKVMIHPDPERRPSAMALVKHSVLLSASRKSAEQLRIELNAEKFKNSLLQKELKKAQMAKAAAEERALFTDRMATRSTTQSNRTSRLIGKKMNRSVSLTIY

| Compound | IC50 [1, 3] [µM] | IC50 ([2]; WEE1 15 nM, banded values) [µM] | PKMYT1 vs. WEE1 selectivity ([2]; banded) | IC50 [1, 4] [µM] | IC50 [2, 5] [µM] | PKMYT1 vs. WEE1 selectivity [2, 6] |
| --- | --- | --- | --- | --- | --- | --- |
| COc1c(Cl)ncnc1Nc1ncc(C(=O)Nc2c(C)ccc(O)c2C)s1 [BAA-562, 2-((6-chloro-5-methoxypyrimidin-4-yl)amino)-N-(3-hydroxy-2,6-dimethylphenyl)thiazole-5-carboxamide] | < 0.05 | > 11 | Y (1000-5000 fold) | – | – | – |
| Cc1ccc(O)c(C)c1NC(=O)c1cnc(Nc2ccn(CCO)n2)s1 [BAA-011] | – | – | – | < 0.05 | 1 to 11 | W (10-<100 fold) |
| Cc1ccc(O)c(C)c1NC(=O)c1cnc(Nc2ccn([C@@H]3CCN(C(=O)C(C)C)C3)n2)s1 [BAA-086] | – | – | – | 0.05 to 1 | > 11 | >Y (1000-5000 fold) |
| Cc1ccc(O)c(C)c1NC(=O)c1cnc(Nc2cc(C)n(CC(=O)O)n2)s1 [BAA-124, 2-[3-[[5-[(3-hydroxy-2,6-dimethyl-phenyl)carbamoyl]thiazol-2-yl]amino]-5-methyl-pyrazol-1-yl]acetic acid] | – | – | – | < 0.05 | > 11 | X (100-<1000 fold) |
| Cc1ccc(O)c(C)c1NC(=O)c1cnc(Nc2cccc3cccnc23)s1 [BAA-487, N-(3-hydroxy-2,6-dimethylphenyl)-2-(quinolin-8-ylamino) thiazole-5-carboxamide] | 0.05 to 1 | > 11 | X (100-<1000 fold) | – | – | – |
| Cc1ccc(O)c(C)c1NC(=O)c1cnc(Nc2ccc(NC(=O)c3c(F)cc(F)cc3F)cn2)s1 [BAA-302, N-(3-hydroxy-2,6-dimethylphenyl)-2-((5-(2,4,6-trifluorobenzamido)pyridin-2-yl)amino)thiazole-5-carboxamide] | – | – | – | 0.05 to 1 | > 11 | X (100-<1000 fold) |
| Cc1ccc(O)c(C)c1NC(=O)c1cnc(Nc2noc(C)c2C)s1 [BAA-439, 2-((4,5-dimethylisoxazol-3-yl)amino)-N-(3-hydroxy-2,6-dimethylphenyl)thiazole-5-carboxamide] | < 0.05 | 1 to 11 | X (100-<1000 fold) | – | – | – |
| Cc1cn(CC(=O)N(C)CCO)nc1Nc1ncc(C(=O)Nc2c(C)ccc(O)c2C)s1 [BAA-524, N-(3-Hydroxy-2.6-dimethylphenyl)-2-((1-(2-((2-hydroxyethyl)(methyl)amino)-2-oxoethyl)-4-methyl-1H-pyrazol-3-yl)amino)thiazole-5-carboxamide] | < 0.05 | > 11 | Y (1000-5000 fold) | – | – | – |
| Cc1ccc(O)c(C)c1NC(=O)c1cnc(Nc2ccn(CC(=O)N3C[C@@H](C)N(C(=O)OC(C)(C)C)[C@@H](C)C3)n2)s1 [BAA-156] | – | – | – | < 0.05 | > 11 | Y (1000-5000 fold) |
| Cc1ccc(O)c(C)c1NC(=O)c1cnc(NCCO)s1 [BAA-062, N-(3-hydroxy-2,6-dimethyl-phenyl)-2-(2-hydroxyethylamino)thiazole-5-carboxamide] | – | – | – | 1 to 11 | > 11 | >W (10-<100 fold) |
| Cc1ccc(O)c(C)c1NC(=O)c1cnc(Nc2ccn(CC(=O)NC3CCCC3)n2)s1 [BAA-192] | – | – | – | < 0.05 | > 11 | Y (1000-5000 fold) |
| Cc1ccc(O)c(C)c1NC(=O)c1cnc(Nc2nc(C)c(C)s2)s1 [BAA-266, 2-((4,5-dimethylthiazol-2-yl)amino)-N-(3-hydroxy-2,6-dimethylphenyl)thiazole-5-carboxamide] | – | – | – | 0.05 to 1 | > 11 | X (100-<1000 fold) |
| Cc1ccc(O)c(C)c1NC(=O)c1cnc(Nc2ccn([C@@H]3CCN(C(=O)Cc4ccc(N)cc4)C3)n2)s1 [BAA-106, 2-[[1-[(3R)-1-[2-(4-Aminophenyl)acetyl]pyrrolidin-3-yl]pyrazol-3-yl]amino]-N-(3-hydroxy-2,6-dimethyl-phenyl)thiazole-5-carboxamide] | – | – | – | < 0.05 | > 11 | >Y (1000-5000 fold) |
| Cc1ccc(O)c(C)c1NC(=O)c1cnc(Nc2nn(C)c3cccc(F)c23)s1 [BAA-444, 2-((4-fluoro-1-methyl-1H-indazol-3-yl)amino)-N-(3-hydroxy-2,6-dimethylphenyl)thiazole-5-carboxamide] | < 0.05 | > 11 | X (100-<1000 fold) | – | – | – |
| Cc1ccc(O)c(Br)c1NC(=O)c1cnc(Nc2ccn(CC(=O)N3CCCC3)n2)s1 [BAA-476] | < 0.05 | 1 to 11 | X (100-<1000 fold) | – | – | – |
| Cc1ccc(O)c(C)c1NC(=O)c1cnc(Nc2cc(C)n(C)n2)s1 [BAA-122, 2-[(1,5-dimethylpyrazol-3-yl)amino]-N-(3-hydroxy-2,6-dimethyl-phenyl)thiazole-5-carboxamide] | – | – | – | 0.05 to 1 | 1 to 11 | X (100-<1000 fold) |
| Cc1ccc(O)c(C)c1NC(=O)c1cnc(Nc2cc(C(N)=O)n(C)n2)s1 [BAA-130, 2-[(5-Carbamoyl-1-methyl-pyrazol-3-yl)amino]-N-(3-hydroxy-2,6-dimethyl-phenyl)thiazole-5-carboxamide] | – | – | – | < 0.05 | 1 to 11 | X (100-<1000 fold) |
| Cc1ccc(O)c(C)c1NC(=O)c1cnc(Nc2cc(C3CC3)n(C)n2)s1 [BAA-245, 2-((5-cyclopropyl-1-methyl-1H-pyrazol-3-yl)amino)-N-(3-hydroxy-2,6-dimethylphenyl)thiazole-5-carboxamide] | – | – | – | < 0.05 | > 11 | Y (1000-5000 fold) |
| Cc1ccc(O)c(C)c1NC(=O)c1cnc(Nc2ccc(C#N)c(F)c2)s1 [BAA-283, 2-((4-cyano-3-fluorophenyl)amino)-N-(3-hydroxy-2,6-dimethylphenyl)thiazole-5-carboxamide] | – | – | – | 1 to 11 | > 11 | W (10-<100 fold) |
| Cc1nccc(Nc2ncc(C(=O)Nc3c(C)ccc(O)c3C)s2)n1 [BAA-434, N-(3-hydroxy-2,6-dimethylphenyl)-2-((2-methylpyrimidin-4-yl)amino)thiazole-5-carboxamide] | < 0.05 | > 11 | Y (1000-5000 fold) | – | – | – |
| Cc1ccc(O)c(C)c1NC(=O)c1cnc(Nc2ccc(C(C)(C)C)cc2)s1 [BAA-281, 2-((4-(tert-butyl)phenyl)amino)-N-(3-hydroxy-2,6-dimethylphenyl)thiazole-5-carboxamide] | – | – | – | 0.05 to 1 | > 11 | X (100-<1000 fold) |
| Cc1ccc(O)c(C)c1NC(=O)c1cnc(Nc2ccn(CC(=O)N3CCNC(=O)C3)n2)s1 [BAA-150] | – | – | – | < 0.05 | > 11 | X (100-<1000 fold) |
| Cc1c(O)cc(Br)c(C)c1NC(=O)c1cnc(Nc2cc(C)n(C3CCS(=O)(=O)C3)n2)s1 (stereo not drawn) [BAA-563, N-(3-Bromo-5-hydroxy-2,6-dimethyl-phenyl)-2-[[1-(1,1-dioxothiolan-3-yl)-5-methyl-pyrazol-3-yl]amino]thiazole-5-carboxamide] | 0.05 to 1 | 1 to 11 | W (10-<100 fold) | – | – | – |
| Cc1nnc(Nc2ncc(C(=O)Nc3c(C)ccc(O)c3C)s2)o1 [BAA-258, N-(3-hydroxy-2,6-dimethylphenyl)-2-((5-methyl-1,3,4-oxadiazol-2-yl)amino)thiazole-5-carboxamide] | – | – | – | 1 to 11 | > 11 | W (10-<100 fold) |
| Cc1ccc(O)c(C)c1NC(=O)c1cnc(Nc2cn(C)nc2C)s1 [BAA-521, 2-((1,3-dimethyl-1H-pyrazol-4-yl)amino)-N-(3-hydroxy-2,6-dimethylphenyl)thiazole-5-carboxamide] | 0.05 to 1 | > 11 | X (100-<1000 fold) | – | – | – |
| Cc1ccc(O)c(C)c1NC(=O)c1cnc(Nc2nc(Cl)ccc2C(F)(F)F)s1 [BAA-405, 2-((6-chloro-3-(trifluoromethyl)pyridin-2-yl)amino)-N-(3-hydroxy-2,6-dimethylphenyl)thiazole-5-carboxamide] | 0.05 to 1 | > 11 | X (100-<1000 fold) | – | – | – |
| Cc1ccc(O)c(C)c1NC(=O)c1cnc(Nc2ccn(CC(=O)NC3CCOCC3)n2)s1 [BAA-195] | – | – | – | < 0.05 | > 11 | Y (1000-5000 fold) |
| Cc1ccc(O)c(C)c1NC(=O)c1cnc(Nc2ccn([C@@H]3CCN(C)C3)n2)s1 [BAA-116, N-(3-Hydroxy-2,6-dimethyl-phenyl)-2-[[1-[(3R)-1-methylpyrrolidin-3-yl]pyrazol-3-yl]amino]thiazole-5-carboxamide] | – | – | – | 0.05 to 1 | 1 to 11 | W (10-<100 fold) |
| Cc1ccc(O)c(C)c1NC(=O)c1cnc(Nc2ccn(CC(=O)NCC(C)(C)O)n2)s1 [BAA-146] | – | – | – | < 0.05 | > 11 | Y (1000-5000 fold) |
